Laboratory results taken from PMC3523284 (Cell metabolism, 2012).

Assays:
Mss51 [1] = molecular target: Mss51 (Saccharomyces cerevisiae, UniProt P32335, C85S); experiment: difference UV-visible spectroscopy titration; assay type: binding
Mss51 [2] = molecular target: T1, Mss51 (Saccharomyces cerevisiae, UniProt P32335); experiment: difference UV-visible spectroscopy titration; assay type: binding
T1 sequence (P32335 1-436): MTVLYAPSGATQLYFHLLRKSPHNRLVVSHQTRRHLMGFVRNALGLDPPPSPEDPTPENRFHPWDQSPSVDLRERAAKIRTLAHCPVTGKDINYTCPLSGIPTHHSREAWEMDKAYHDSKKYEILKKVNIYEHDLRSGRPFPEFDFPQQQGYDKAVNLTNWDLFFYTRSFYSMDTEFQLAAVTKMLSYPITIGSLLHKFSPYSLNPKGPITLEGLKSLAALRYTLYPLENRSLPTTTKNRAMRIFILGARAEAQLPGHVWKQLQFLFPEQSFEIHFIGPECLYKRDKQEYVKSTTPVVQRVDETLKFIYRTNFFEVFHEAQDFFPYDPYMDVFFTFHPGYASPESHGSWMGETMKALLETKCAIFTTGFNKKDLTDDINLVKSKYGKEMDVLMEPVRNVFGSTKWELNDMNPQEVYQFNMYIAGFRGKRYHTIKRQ

Mss51 (Saccharomyces cerevisiae, UniProt P32335, C85S), sequence (P32335 whole entry C85S): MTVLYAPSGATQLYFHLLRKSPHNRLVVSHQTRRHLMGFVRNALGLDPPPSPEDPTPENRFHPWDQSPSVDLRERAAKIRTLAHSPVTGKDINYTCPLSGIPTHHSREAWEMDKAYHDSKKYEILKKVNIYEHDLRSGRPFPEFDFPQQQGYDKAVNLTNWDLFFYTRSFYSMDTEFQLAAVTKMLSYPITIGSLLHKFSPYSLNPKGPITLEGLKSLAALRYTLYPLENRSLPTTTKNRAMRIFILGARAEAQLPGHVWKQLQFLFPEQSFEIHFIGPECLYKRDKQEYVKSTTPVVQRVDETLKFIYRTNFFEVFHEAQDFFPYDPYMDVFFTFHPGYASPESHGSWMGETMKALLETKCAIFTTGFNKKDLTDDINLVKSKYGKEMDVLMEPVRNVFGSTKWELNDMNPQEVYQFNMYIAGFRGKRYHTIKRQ

Compound: C=CC1=C(C)C2=Cc3c(C=C)c(C)c4[n]3[Fe]([Cl])[n]3c(c(C)c(CCC(=O)O)c3=CC3=NC(=C4)C(C)=C3CCC(=O)O)=CC1=N2 [hemin]
- Kd (Mss51 [1]): 324 ± 74 nM
- Kd (Mss51 [2]): ~445 nM
